Measured values taken from patent publication US20080206761A1, “Ex Vivo Gene Expression in Whole Blood as a Model of Assessment of Individual Variation to Dietary Supplements” (priority 2005, published 2008).

Columns and labels:
Format in all cases: cell-based, human
IL-2 mRNA = test: PHA-induced IL-2 mRNA expression in heparinized whole blood ex vivo; settings: supplement 30 min, concentrations per footnote
Method: (§1) In this embodiment, phytohemagglutinin-induced gene expression of interleukin-2 (IL-2), interleukin-4 (IL-4), and tumor necrosis factor-α (TNF-α) were quantitated in the following manner. Fifty μL of heparinized whole blood was incubated with various dietary supplements for a period of 30 minutes. The following supplements were employed: vitamins A, C, and D, epigallocatechin gallate (from green tea), genistein (from soy), and curcumin (from the spice turmeric). Vitamin A is known to stimulate the immune system. […] Vitamin D appears to have protective effects against certain cancers. Epigallocatechin gallate is a powerful antioxidant, appears to reduce the multidrug resistance found in cancer cells, and preferentially induces apoptosis in neoplastic cells. Genistein has been found in some studies to have anticarcinogenic activity; possible mechanisms of action include upregulation of apoptosis, inhibition of angiogenesis, inhibition of DNA topoisomerase II and inhibition of protein tyrosine kinases. Curcumin has proapoptotic effects in neoplastic cells and interferes with the activity of the transcription factor NF-κB, which is often highly overexpressed in such cells.
(§2) After incubation with the dietary supplement, 100 μg/mL phytohemagglutinin (PHA) was added and incubation was continued for an additional 2 hours at 37° C. The concentration of each dietary supplement (see Table I, note) was slightly higher than reported blood levels. Then mRNA was purified, cDNA was synthesized, and the levels of IL-2, IL-4, and TNF-α were quantitated by TaqMan real time polymerase chain reaction (PCR) (see Holland, et al., “Detection of specific polymerase chain reaction product by utilizing the 5′ to 3′ exonuclease activity of Thermus aquaticus DNA polymerase,” Proc Natl Acad Sci USA 1991; 88: 7276-80), as described below.
(§3) The mRNA and cDNA were prepared from the whole blood that was exposed to the dietary components, as well as the whole blood which remained unexposed. In brief, home-made 96-well filterplates were placed over collection plates, and 150 μl 5 mM Tris, pH 7.4, was applied. Following centrifugation at 120×g for 1 min at 4° C., 50 μl of blood samples were applied to each well and immediately centrifuged at 120×g for 2 min at 4° C., followed by washing of each well with 300 μl PBS once with centrifugation at 2000×g for 5 min at 4° C. Then, 60 μl stock lysis buffer, containing for example 0.5% N-Lauroylsarcosine, 4×SSC, 10 mM Tris HCl, pH 7.4, 1 mM EDTA, 0.1% IGEPAL CA-630, and 1.791 M guanidine thiocyanate, supplemented with 1% 2-mercaptoethanol (Bio Rad, Hercules, Calif., USA), 0.5 mg/ml proteinase K (Pierce, Rockford, Ill., USA), 0.1 mg/ml salmon sperm DNA (5 Prime Eppendorf/Brinkmann, Westbury, N.Y., USA), 0.1 mg/ml E. coli tRNA (Sigma), a cocktail of 10 mM each of the specific reverse primers shown in Table 2, and standard RNA34 oligonucleotides, were applied to the filterplates, followed by incubation at 37° C. for 10 min. The filterplates were then placed over oligo(dT)-immobilized microplates (GenePlate, RNAture), and centrifuged at 2000×g for 5 min at 4° C. Following overnight storage at 4° C., the microplates were washed with 100 μl plain lysis buffer 3 times, followed by 150 μl of wash buffer (0.5 M NaCl, 10 mM Tris, pH 7.4, 1 mM EDTA) 3 times at 4° C. The cDNA was directly synthesized in each well by adding 30 μl of buffer containing 1×RT-buffer, 1.25 mM each of dNTP, 4 units rRNasin, and 80 units of MMLV reverse transcriptase (Promega) (without primers), and incubation at 37° C. for 2 hours. The specific primer-primed cDNA existed in solution, and oligo(dT)-primed cDNA stayed immobilized in the microplate. […]

IL-4 mRNA = test: PHA-induced IL-4 mRNA expression in heparinized whole blood ex vivo; settings: for ΔΔCt (mean ± standard deviation, n = 3), IL-4 mRNA: supplement 30 min, then 100 μg/mL PHA 2 h, concentrations per footnote
Method: as §1, §2, §3

TNF-α mRNA = test: PHA-induced TNF-α mRNA expression in heparinized whole blood ex vivo; settings: supplement 30 min, then 100 μg/mL PHA 2 h, concentrations per footnote
Method: as §1, §2, §3

## CC1=C(/C=C/C(C)=C/C=C/C(C)=C/CO)C(C)(C)CCC1 [VA, vitamin A]
IL-2 mRNA; Subject 1, then 100 μg/mL PHA 2 h 37° C., negative = increased expression
  ΔΔCt (mean ± standard deviation, n = 3), IL-2 mRNA: −0.98 ± 0.04
IL-2 mRNA; Subject 2, then 100 μg/mL PHA 2 h
  ΔΔCt (mean ± standard deviation, n = 3), IL-2 mRNA: −1.61 ± 0.32
IL-2 mRNA; Subject 3, then 100 μg/mL PHA 2 h
  ΔΔCt (mean ± standard deviation, n = 3), IL-2 mRNA: 0.49 ± 0.33
IL-2 mRNA; Subject 4, then 100 μg/mL PHA 2 h
  ΔΔCt (mean ± standard deviation, n = 3), IL-2 mRNA: −0.29 ± 0.21
IL-2 mRNA; Subject 5, then 100 μg/mL PHA 2 h
  ΔΔCt (mean ± standard deviation, n = 3), IL-2 mRNA: −1.16 ± 0.02
IL-2 mRNA; Subject 6, then 100 μg/mL PHA 2 h
  ΔΔCt (mean ± standard deviation, n = 3), IL-2 mRNA: −0.26 ± 0.20
IL-2 mRNA; Subject 7, then 100 μg/mL PHA 2 h
  ΔΔCt (mean ± standard deviation, n = 3), IL-2 mRNA: −0.66 ± 0.35
IL-4 mRNA; Subject 1
  ΔΔCt (mean ± standard deviation, n = 3), IL-4 mRNA: −2.14 ± 0.08
IL-4 mRNA; Subject 2
  ΔΔCt (mean ± standard deviation, n = 3), IL-4 mRNA: −1.56 ± 0.34
IL-4 mRNA; Subject 3
  ΔΔCt (mean ± standard deviation, n = 3), IL-4 mRNA: −0.15 ± 0.40
IL-4 mRNA; Subject 4
  ΔΔCt (mean ± standard deviation, n = 3), IL-4 mRNA: −0.98 ± 0.41
IL-4 mRNA; Subject 5
  ΔΔCt (mean ± standard deviation, n = 3), IL-4 mRNA: −1.24 ± 0.13
IL-4 mRNA; Subject 6
  ΔΔCt (mean ± standard deviation, n = 3), IL-4 mRNA: −0.65 ± 0.09
IL-4 mRNA; Subject 7
  ΔΔCt (mean ± standard deviation, n = 3), IL-4 mRNA: −1.15 ± 0.39
IL-4 mRNA; summary over 7 subjects of Table I
  effect on PHA-induced IL-4 expression, in words: enhanced IL-4 expression, with 1-3 exceptions
TNF-α mRNA; Subject 1
  ΔΔCt (mean ± standard deviation, n = 3), TNFα mRNA: −1.56 ± 0.11
TNF-α mRNA; Subject 2
  ΔΔCt (mean ± standard deviation, n = 3), TNFα mRNA: −0.57 ± 0.94
TNF-α mRNA; Subject 3
  ΔΔCt (mean ± standard deviation, n = 3), TNFα mRNA: 0.51 ± 0.03
TNF-α mRNA; Subject 4
  ΔΔCt (mean ± standard deviation, n = 3), TNFα mRNA: −0.08 ± 0.29
TNF-α mRNA; Subject 5
  ΔΔCt (mean ± standard deviation, n = 3), TNFα mRNA: −0.76 ± 0.34
TNF-α mRNA; Subject 6
  ΔΔCt (mean ± standard deviation, n = 3), TNFα mRNA: −0.50 ± 0.10
TNF-α mRNA; Subject 7
  ΔΔCt (mean ± standard deviation, n = 3), TNFα mRNA: −1.11 ± 0.24
